Measured values from PubChem BioAssay (NCI).
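Growth conditions: 96-well plates. Treatment: test compound, 48 hours, 5 concentrations. Analysis: linear interpolation between bracketing concentrations; unreached endpoints set to highest concentration. The concentration for 50% growth inhibition is given as GI50. At the TGI there is no net growth.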

How the values were obtained:
Experiment in all cases: NCI anticancer screen, dose series, 48 h
OVCAR-3 ovarian = tested on: OVCAR-3 ovarian
HL-60(TB) leukemia = tested on: HL-60(TB) leukemia
HOP-92 NSCLC = tested on: HOP-92 NSCLC
HS 578T breast = tested on: HS 578T breast
CCRF-CEM leukemia = tested on: CCRF-CEM leukemia
LOX IMVI melanoma = tested on: LOX IMVI melanoma
MDA-MB-231 breast = tested on: MDA-MB-231 breast
T-47D breast = tested on: T-47D breast
HCC-2998 colon = tested on: HCC-2998 colon
PC-3 prostate = tested on: PC-3 prostate
A549 NSCLC = tested on: A549 NSCLC
MALME-3M melanoma = tested on: MALME-3M melanoma
MCF7 breast = tested on: MCF7 breast
UO-31 renal = tested on: UO-31 renal
EKVX NSCLC = tested on: EKVX NSCLC
MOLT-4 leukemia = tested on: MOLT-4 leukemia
SF-268 CNS = tested on: SF-268 CNS
TK-10 renal = tested on: TK-10 renal
786-0 renal = tested on: 786-0 renal
SNB-75 CNS = tested on: SNB-75 CNS
A498 renal = tested on: A498 renal
HCT-116 colon = tested on: HCT-116 colon
SF-539 CNS = tested on: SF-539 CNS
OVCAR-8 ovarian = tested on: OVCAR-8 ovarian
UACC-62 melanoma = tested on: UACC-62 melanoma
K-562 leukemia = tested on: K-562 leukemia
IGROV1 ovarian = tested on: IGROV1 ovarian
ACHN renal = tested on: ACHN renal
SR leukemia = tested on: SR leukemia

N#C/C(=C\c1ccc(Br)cc1)n1nnc2c(F)cccc21
GI50 (OVCAR-3 ovarian): 0.275 µM
TGI (OVCAR-3 ovarian): 0.845 µM
GI50 (HL-60(TB) leukemia): 2.45 µM
TGI (HL-60(TB) leukemia): > 100 µM
GI50 (HOP-92 NSCLC): 0.156 µM
TGI (HOP-92 NSCLC): 4.48 µM
GI50 (HS 578T breast): 3.39 µM
TGI (HS 578T breast): > 100 µM
GI50 (CCRF-CEM leukemia): 0.657 µM
TGI (CCRF-CEM leukemia): 3.13 µM
GI50 (LOX IMVI melanoma): 1.41 µM
TGI (LOX IMVI melanoma): 2.77 µM
GI50 (MDA-MB-231 breast): 1.28 µM
TGI (MDA-MB-231 breast): 4.17 µM
GI50 (T-47D breast): 0.353 µM
TGI (T-47D breast): 4.78 µM
GI50 (HCC-2998 colon): 1.71 µM
TGI (HCC-2998 colon): 3.18 µM
GI50 (PC-3 prostate): 0.472 µM
TGI (PC-3 prostate): 2.05 µM
GI50 (A549 NSCLC): 1.93 µM
TGI (A549 NSCLC): > 100 µM
GI50 (MALME-3M melanoma): 1.44 µM
TGI (MALME-3M melanoma): 3.93 µM
GI50 (MCF7 breast): 0.768 µM
TGI (MCF7 breast): > 100 µM
GI50 (UO-31 renal): 1.04 µM
TGI (UO-31 renal): 2.24 µM
GI50 (EKVX NSCLC): 1.75 µM
TGI (EKVX NSCLC): > 100 µM
GI50 (MOLT-4 leukemia): 2.48 µM
TGI (MOLT-4 leukemia): > 100 µM
GI50 (SF-268 CNS): 3.11 µM
TGI (SF-268 CNS): > 100 µM
GI50 (TK-10 renal): 2.36 µM
TGI (TK-10 renal): 6.5 µM
GI50 (786-0 renal): 1.29 µM
TGI (786-0 renal): 2.91 µM
GI50 (SNB-75 CNS): 0.043 µM
TGI (SNB-75 CNS): 5.04 µM
GI50 (A498 renal): 1.36 µM
TGI (A498 renal): 4.65 µM
GI50 (HCT-116 colon): 0.503 µM
TGI (HCT-116 colon): 1.94 µM
GI50 (SF-539 CNS): 2.21 µM
TGI (SF-539 CNS): 5.45 µM
GI50 (OVCAR-8 ovarian): 2.87 µM
TGI (OVCAR-8 ovarian): > 100 µM
GI50 (UACC-62 melanoma): 0.697 µM
TGI (UACC-62 melanoma): 2.17 µM
GI50 (K-562 leukemia): 0.386 µM
TGI (K-562 leukemia): > 100 µM
GI50 (IGROV1 ovarian): 0.715 µM
TGI (IGROV1 ovarian): 3.02 µM
GI50 (ACHN renal): 1.04 µM
TGI (ACHN renal): 2.38 µM
GI50 (SR leukemia): 0.441 µM
TGI (SR leukemia): > 100 µM
